From paper PMC11901676, “Substrate Selectivities of GH78 α-L-Rhamnosidases from Human Gut Bacteria on Dietary Flavonoid Glycosides” (Molecules, 2025)

Legend:
Experiment in all cases: HPLC initial rates, Michaelis-Menten fit
[1] = test system: T1, HFM-RhaC; type: biochemical, metagenome: human feces; details: 50 mM sodium phosphate pH 6.0, 37 °C, 5 min
T1 construct: recombinant in E. coli BL21(DE3), Ni-NTA purified
Excerpt: HPLC initial rates, Michaelis-Menten fit on HFM-RhaC

[2] = test system: T2, HFM-Rha78; type: biochemical, metagenome: human feces; details: 50 mM sodium phosphate pH 6.5, 37 °C, 5 min
T2 construct: recombinant in E. coli BL21(DE3), Ni-NTA purified
Excerpt: HPLC initial rates, Michaelis-Menten fit on HFM-Rha78

[3] = test system: T3, HFM-RhaA; type: biochemical, metagenome: human feces; details: 50 mM sodium phosphate pH 6.0, 37 °C, 5 min
T3 construct: recombinant in E. coli BL21(DE3), Ni-NTA purified; catalytic residues Glu448 (acid) and Glu715 (base); AlphaFold2 model said to be in UniProt
Excerpt: HPLC initial rates, Michaelis-Menten fit on HFM-RhaA

[4] = substrate: COc1ccc([C@@H]2CC(=O)c3c(O)cc(O[C@@H]4O[C@H](CO[C@@H]5O[C@@H](C)[C@H](O)[C@@H](O)[C@H]5O)[C@@H](O)[C@H](O)[C@H]4O)cc3O2)cc1O; type: biochemical, Bacteroides thetaiotaomicron; details: 50 mM sodium phosphate pH 6.5, 37 °C, 5 min
Excerpt: (§1) HPLC initial rates, Michaelis-Menten fit on BtRha78A

[5] = substrate: C[C@@H]1O[C@@H](OC[C@H]2O[C@@H](Oc3c(-c4ccc(O)c(O)c4)oc4cc(O)cc(O)c4c3=O)[C@H](O)[C@@H](O)[C@@H]2O)[C@H](O)[C@H](O)[C@H]1O; type: biochemical, Bacteroides thetaiotaomicron; details: 50 mM sodium phosphate pH 6.5, 37 °C, 5 min
Excerpt: as §1

Row | Molecule | Km [1] | Km [2] | Km [3] | also measured
1 | COc1ccc([C@@H]2CC(=O)c3c(O)cc(O[C@@H]4O[C@H](CO)[C@@H](O)[C@H](O)[C@H]4O[C@@H]4O[C@@H](C)[C@H](O)[C@@H](O)[C@H]4O)cc3O2)cc1O [Neohesperidin] | 3250 µM | 3970 µM | 530 µM | –
2 | C[C@@H]1O[C@@H](O[C@H]2[C@H](Oc3cc(O)c4c(c3)O[C@H](c3ccc(O)cc3)CC4=O)O[C@H](CO)[C@@H](O)[C@@H]2O)[C@H](O)[C@H](O)[C@H]1O [Naringin] | 2290 µM | 5970 µM | 1920 µM | –
3 | C[C@@H]1O[C@@H](OC[C@H]2O[C@@H](Oc3c(-c4ccc(O)c(O)c4)oc4cc(O)cc(O)c4c3=O)[C@H](O)[C@@H](O)[C@@H]2O)[C@H](O)[C@H](O)[C@H]1O [Rutin] | 5050 µM | – | 1240 µM | –
4 | COc1ccc([C@@H]2CC(=O)c3c(O)cc(O[C@@H]4O[C@H](CO[C@@H]5O[C@@H](C)[C@H](O)[C@@H](O)[C@H]5O)[C@@H](O)[C@H](O)[C@H]4O)cc3O2)cc1O [Hesperidin] | 2160 µM | – | – | –
5 | BtRha78A (Bacteroides thetaiotaomicron VPI-5482) (protein, recombinant in E. coli BL21(DE3), Ni-NTA purified) MILLGALSLASSTFAQTWIWYPGDYEIWLGNQMNNRRTERGAFFPPFWKTDSHYVVVEFSKVLNLSEPEEVFIAAEGTYNVKLDGKLQFGMPETLLLPAGKHSLNIKVWNQATPPTIYVKGKTVNSDSSWRVTYEDKEWIDESGKASDTSATIYMDAGCWNFDGATQRPSQFSLMREPQQPVAKTEQPEGGILYDFGKETFGFITLKNLSGKGKIDLYYGESPEEAKDKAYCETLDKLLLEPGQITDLAIRSTSPLHHSDNEYTLENSKAFRYVYITHEPEVQIGEVSMQYEYLPEEYRGNFRCNDEELNCIWEVGAYTMHLTTREFFIDGIKRDRWVWSGDAIQSYLMNYYLFFDSESVKRTIWLLRGKDPVTSHSNTIMDYTFYWFLSVYDYYMYSGDRHFVNQLYPRMQTMMDYVLGRTNKNGMVEGMSGDWVFVDWADGYLDKKGELSFEQVLFCRSLETMALCADLVGDKDGQQKYEKLASALKAKLEPTFWNNQKQAFVHNCVDGRQSDAVTRYANMFSVFFDYLNADKQQAIKQSVLLNDEILKITTPYMRFYELEALCALGEQETVMKEMKAYWGGMLKAGATSFWEKYNPEESGTQHLAMYGRPYGKSLCHAWGASPIYLLGKYYLGVKPTKEGYKEFAVSPVLGGLKWMEGTVPTPNGDIHVYMDNKTIKVKATEGKGYLTIQSRRQPKANMGTVEKVSEGVWRLWIDSPEERIVTYRL | – | – | – | Km [4]: 2780 µM; kcat [4]: 8.73 s⁻¹; kcat/Km [4]: 3140 M⁻¹ s⁻¹; Km [5]: 2380 µM; kcat [5]: 0.47 s⁻¹; kcat/Km [5]: 200 M⁻¹ s⁻¹
